Target: T1, firefly luciferase (FLuc) (Photinus pyralis, UniProt P08659)
T1 construct: purchased Sigma-Aldrich; host or cells: E. coli
Experiment: Inhibition assay of luciferase (purified recombinant enzyme, bioluminescence readout)
Format: biochemical
Details: n = 3; for IC50: sigmoidal fit, concentration series 100 µM to 13 nM and 300 µM to 0.41 nM; for Inhibition (%) of FLuc: compound concentration 10 µM; for Inhibition (%) of FLuc / inhibition at 10 µM: relative to DMSO vehicle control; for inhibition at 10 µM: read-out: Inhibition (%) of FLuc, compound concentration 10 µM
Experimental: 25 µL of luciferase protein (c = 0.6 µg/mL, Sigma-Aldrich, recombinant expressed in E.coli) in Trisbuffer (10 mM Tris, 10 mM KCl, 1 mM EGTA, 30% glycerol) pH7.4 were added to each well of a white 96 well plate (Brand). The compounds were added in 1 µL DMSO at various concentrations. After incubation of the enzyme with the compounds for 10 min at room temperature, 80 µL of FLuc buffer (25 mM glycylglycin, 4 mM EGTA, 15 mM MgSO4, 15 mM PPB) was added and the light signal was immediately measured using a multiplate reader (Clariostar, BMG) with a gain of 2500 and a measurement interval time of 2 s. Inhibition was calculated in relation to the control, enzyme treated with vehicle (DMSO).
OriginPro 2021b (64-bit) SR2 (9.8.5.212) (OriginLab) was used to determine the inhibition and IC50 values and prepare the figures. The IC50 values were calculated from the sigmoidal fit of the log scale concentration without fixing the parameters.
The inhibitory activity of all chalcones was evaluated at a concentration of 10 µM on purified recombinant firefly luciferase, as this concentration would also be used in the reporter gene assay to determine neurogenic activity.
To obtain the IC50 values and construct a concentration-response curve, chalcones were measured in the assay using a series of decreasing concentrations, ranging from 100 µM to 13 nM and from 300 µM to 0.41 nM.

T1 sequence (P08659 whole entry): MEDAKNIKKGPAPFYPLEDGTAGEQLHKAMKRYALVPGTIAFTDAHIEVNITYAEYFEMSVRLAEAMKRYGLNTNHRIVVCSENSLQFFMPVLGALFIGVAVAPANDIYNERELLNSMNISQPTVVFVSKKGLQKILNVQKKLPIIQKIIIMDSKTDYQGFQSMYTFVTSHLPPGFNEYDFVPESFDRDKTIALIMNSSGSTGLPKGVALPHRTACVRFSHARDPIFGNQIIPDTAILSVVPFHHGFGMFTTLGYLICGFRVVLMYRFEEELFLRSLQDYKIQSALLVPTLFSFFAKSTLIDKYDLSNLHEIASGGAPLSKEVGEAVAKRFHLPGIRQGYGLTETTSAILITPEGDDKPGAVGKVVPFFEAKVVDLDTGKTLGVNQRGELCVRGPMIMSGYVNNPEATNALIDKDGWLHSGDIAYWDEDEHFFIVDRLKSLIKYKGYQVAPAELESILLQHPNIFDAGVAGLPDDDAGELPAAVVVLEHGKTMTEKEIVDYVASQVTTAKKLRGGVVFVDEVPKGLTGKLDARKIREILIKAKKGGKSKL

Q: O=C(O)c1cccc(-c2noc(-c3ccccc3F)n2)c1 [Ataluren, reference compound] was tested. Which IC50 did it give?
A: Its IC50 is 0.11 µM.

Q: What does the source list for CC1(C)C=Cc2cc(C(=O)/C=C/c3ccc(O)cc3)ccc2O1 [Compound 2, (E)-1–(2,2dimethyl-2H-chromen-6-yl)-3–(4-hydroxyphenyl)prop-2-en-1-one]?
A: Inhibition (%) of FLuc (10 µM): 32%; inhibition at 10 µM: 30%

Q: With COc1cc2c(cc1C(=O)/C=C/c1ccc(O)cc1)C=CC(C)(C)O2 [Compound 3, (E)-3–(4-hydroxyphenyl)-1–(7-methoxy-2,2-dimethyl-2H-chromen-6-yl)prop-2-en-1-one] as the compound, how does the inhibition at 10 µM read?
A: Its inhibition at 10 µM is under 5%.

Q: How did the inhibition at 10 µM turn out when CC1(C)C=Cc2c(ccc(C(=O)/C=C/c3ccc(O)cc3)c2O)O1 [Compound 4, (E)-1–(5-hydroxy-2,2-dimethyl-2H-chromen-6-yl)-3–(4-hydroxyphenyl)prop-2-en-1-one] was run?
A: The inhibition at 10 µM was under 10%.

Q: With CC1(C)C=Cc2cc(C(=O)/C=C/c3ccc(O)cc3)c(O)cc2O1 [Compound 5, (E)-1–(7-hydroxy-2,2-dimethyl-2H-chromen-6-yl)-3–(4-hydroxyphenyl)prop-2-en-1-one] as the compound, how does the inhibition at 10 µM read?
A: The inhibition at 10 µM was under 5%.

Q: How did the inhibition at 10 µM turn out when CC1(C)C=Cc2cc(C(=O)/C=C/c3ccc(O)cc3)ccc2N1 [Compound 6, (E)-1–(2,2-dimethyl-1,2-dihydroquinolin-6-yl)-3–(4-hydroxyphenyl)prop-2-en-1-one] was run?
A: Its inhibition at 10 µM is 18%.

Q: With CC1(C)C=Cc2cc(C(=O)/C=C/c3ccc(N)cc3)ccc2O1 [Compound 8, (E)-3–(4-aminophenyl)-1–(2,2-dimethyl-2H-chromen-6-yl)prop-2-en-1-one] as the compound, how does the “Inhibition (%) of FLuc” value read?
A: Its value is “comparable to that of the hydroxyl group”.

Q: Which “Inhibition (%) of FLuc” value does the source give for CC1(C)C=Cc2cc(C(=O)/C=C/c3ccc(Cl)cc3)ccc2O1 [Compound 12, (E)-3–(4-chlorphenyl)-1–(2,2-dimethyl-2H-chromen-6-yl)prop-2-en-1-one] here?
A: The value was “near-complete elimination of the inhibitory effect”.

Q: CC1(C)C=Cc2cc(C(=O)/C=C/c3ccc(C(F)(F)F)cc3)ccc2O1 [Compound 13, (E)-1–(2,2-dihmethyl-2H-chromen-6-yl)-3–(4-(trifluoromethyl)phenyl)prop-2-en-1-one] was tested. Which “Inhibition (%) of FLuc” value did it give?
A: The value was “near-complete elimination of the inhibitory effect”.

Q: With CC1(C)C=Cc2cc(C(=O)/C=C/c3ccccc3)ccc2O1 [Compound 14, (E)-1–(2,2-dimethyl-2H-chromen-6-yl)-3-phenylprop-2-en-1-one] as the compound, how does the “Inhibition (%) of FLuc” value read?
A: Its value is “most pronounced inhibitory effect”.

Q: And the IC50?
A: The IC50 was under 10 µM.

Q: Which IC50 does the source give for CC1(C)C=Cc2cc(C(=O)/C=C/c3cccc(O)c3O)ccc2O1 [Compound 18, (E)-3–(2,3-dihydroxyphenyl)-1–(2,2-dimethyl-2H-chromen-6-yl)prop-2-en-1-one] here?
A: The IC50 was under 10 µM.

Q: How did the “Inhibition (%) of FLuc” value turn out when “(E)-1–(2,2-dimethyl-2H-thiochromen-6-yl)-3–(4-methoxyphenyl)prop-2-en-1-one [Compound 7]” was run?
A: Its value is “less than 10%”.

Q: “(E)-1–(7-hydroxy-5-methoxy-2,2-dimethyl-2H-chromen-6-yl)-3–(4-hydroxyphenyl)prop-2-en-1-one [Compound 1]” was tested. Which “Inhibition (%) of FLuc” value (10 µM) did it give?
A: The value was “no inhibition”.

Q: What about the “Inhibition (%) of FLuc” value (listed as xanthohumol C, 10 µM) of the same compound?
A: Its value is “no inhibitory effect”.

— article PMC12150632, “Chalcones inhibit firefly bioluminescence dependent on A and B-ring substitution pattern – a structure-activity study combined with molecular docking” (Journal of Enzyme Inhibition and Medicinal Chemistry, 2025)
